Experimental data taken from ChEMBL document CHEMBL3991601, “The target landscape of clinical kinase drugs” (Science, 2017).
Activity calls are given as the source filed them.

Key:
[1] = target: RAC-alpha serine/threonine-protein kinase (Homo sapiens, UniProt P31749)
[2] = target: Interleukin-1 receptor-associated kinase 1 (Homo sapiens, UniProt P51617)
[3] = target: T1, Cytochrome c1, heme protein, mitochondrial (Homo sapiens, UniProt P08574)
T1 sequence (P08574 whole entry): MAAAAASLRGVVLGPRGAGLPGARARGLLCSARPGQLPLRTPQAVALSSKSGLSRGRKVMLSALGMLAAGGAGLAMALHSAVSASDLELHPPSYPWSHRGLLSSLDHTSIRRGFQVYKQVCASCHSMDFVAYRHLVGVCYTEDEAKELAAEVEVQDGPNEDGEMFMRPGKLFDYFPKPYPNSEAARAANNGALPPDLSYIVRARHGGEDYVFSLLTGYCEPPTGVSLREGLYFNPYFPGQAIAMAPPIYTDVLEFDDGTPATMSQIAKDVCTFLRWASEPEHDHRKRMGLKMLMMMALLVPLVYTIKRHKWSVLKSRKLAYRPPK

[4] = target: Tyrosine-protein kinase Fer (Homo sapiens, UniProt P16591)
Sequence of Tyrosine-protein kinase Fer (P16591 whole entry): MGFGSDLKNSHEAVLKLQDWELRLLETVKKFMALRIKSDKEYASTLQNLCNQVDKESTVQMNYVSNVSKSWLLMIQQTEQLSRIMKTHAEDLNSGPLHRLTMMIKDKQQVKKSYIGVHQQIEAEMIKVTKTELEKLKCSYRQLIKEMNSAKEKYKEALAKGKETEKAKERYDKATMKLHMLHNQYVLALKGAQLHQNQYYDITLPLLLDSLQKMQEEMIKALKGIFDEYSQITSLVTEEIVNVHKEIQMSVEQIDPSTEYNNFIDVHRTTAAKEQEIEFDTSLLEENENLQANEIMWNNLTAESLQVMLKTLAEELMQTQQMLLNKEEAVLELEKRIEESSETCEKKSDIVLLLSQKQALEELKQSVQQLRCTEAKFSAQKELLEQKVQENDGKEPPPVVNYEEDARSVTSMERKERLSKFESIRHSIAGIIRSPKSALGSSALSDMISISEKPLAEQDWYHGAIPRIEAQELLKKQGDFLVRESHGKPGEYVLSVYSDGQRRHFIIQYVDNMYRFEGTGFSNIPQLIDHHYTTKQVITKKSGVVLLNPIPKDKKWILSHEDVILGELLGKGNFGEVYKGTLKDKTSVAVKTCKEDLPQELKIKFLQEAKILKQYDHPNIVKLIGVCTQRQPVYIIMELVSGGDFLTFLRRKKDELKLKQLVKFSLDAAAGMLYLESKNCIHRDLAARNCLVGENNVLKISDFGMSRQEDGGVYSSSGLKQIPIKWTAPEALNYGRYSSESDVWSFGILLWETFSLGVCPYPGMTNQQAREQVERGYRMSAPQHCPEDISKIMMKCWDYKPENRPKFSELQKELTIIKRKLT

Deoxycytidine kinase = Deoxycytidine kinase (Homo sapiens, UniProt P27707)
Sequence of Deoxycytidine kinase (P27707 whole entry): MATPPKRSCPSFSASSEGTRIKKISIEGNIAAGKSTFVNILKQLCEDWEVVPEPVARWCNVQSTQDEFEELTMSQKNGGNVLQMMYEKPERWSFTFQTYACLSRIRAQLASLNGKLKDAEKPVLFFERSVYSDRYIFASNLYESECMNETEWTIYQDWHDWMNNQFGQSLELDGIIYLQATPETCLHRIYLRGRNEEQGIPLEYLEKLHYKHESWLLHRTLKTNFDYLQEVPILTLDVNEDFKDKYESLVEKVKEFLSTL

[5] = target: Cyclin-dependent kinase 4 (Homo sapiens, UniProt P11802)
Sequence of Cyclin-dependent kinase 4 (P11802 whole entry): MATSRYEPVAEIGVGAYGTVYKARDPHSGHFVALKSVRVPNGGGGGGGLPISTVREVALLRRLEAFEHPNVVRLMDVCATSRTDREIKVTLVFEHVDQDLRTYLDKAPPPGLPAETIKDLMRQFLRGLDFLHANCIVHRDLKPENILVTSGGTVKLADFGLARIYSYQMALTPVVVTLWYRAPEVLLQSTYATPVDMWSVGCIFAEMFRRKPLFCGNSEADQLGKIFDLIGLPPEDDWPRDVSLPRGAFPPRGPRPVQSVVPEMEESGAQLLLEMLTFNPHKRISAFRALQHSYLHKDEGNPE

Aurora kinase A = target: T2, Aurora kinase A (Homo sapiens, UniProt O14965)
T2 sequence (O14965 whole entry): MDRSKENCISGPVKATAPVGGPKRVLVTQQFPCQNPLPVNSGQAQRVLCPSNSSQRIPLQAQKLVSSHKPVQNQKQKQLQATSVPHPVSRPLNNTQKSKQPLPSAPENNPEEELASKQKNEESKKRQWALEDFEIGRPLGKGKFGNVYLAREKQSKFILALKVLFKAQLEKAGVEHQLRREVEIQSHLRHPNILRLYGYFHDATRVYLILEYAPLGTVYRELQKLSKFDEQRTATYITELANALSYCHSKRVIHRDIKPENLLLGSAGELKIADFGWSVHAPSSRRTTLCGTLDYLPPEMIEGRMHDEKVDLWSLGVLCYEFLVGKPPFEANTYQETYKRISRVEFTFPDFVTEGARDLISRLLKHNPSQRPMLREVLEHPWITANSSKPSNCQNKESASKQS

[6] = target: T3, Mitogen-activated protein kinase kinase kinase 3 (Homo sapiens, UniProt Q99759)
T3 sequence (Q99759 whole entry): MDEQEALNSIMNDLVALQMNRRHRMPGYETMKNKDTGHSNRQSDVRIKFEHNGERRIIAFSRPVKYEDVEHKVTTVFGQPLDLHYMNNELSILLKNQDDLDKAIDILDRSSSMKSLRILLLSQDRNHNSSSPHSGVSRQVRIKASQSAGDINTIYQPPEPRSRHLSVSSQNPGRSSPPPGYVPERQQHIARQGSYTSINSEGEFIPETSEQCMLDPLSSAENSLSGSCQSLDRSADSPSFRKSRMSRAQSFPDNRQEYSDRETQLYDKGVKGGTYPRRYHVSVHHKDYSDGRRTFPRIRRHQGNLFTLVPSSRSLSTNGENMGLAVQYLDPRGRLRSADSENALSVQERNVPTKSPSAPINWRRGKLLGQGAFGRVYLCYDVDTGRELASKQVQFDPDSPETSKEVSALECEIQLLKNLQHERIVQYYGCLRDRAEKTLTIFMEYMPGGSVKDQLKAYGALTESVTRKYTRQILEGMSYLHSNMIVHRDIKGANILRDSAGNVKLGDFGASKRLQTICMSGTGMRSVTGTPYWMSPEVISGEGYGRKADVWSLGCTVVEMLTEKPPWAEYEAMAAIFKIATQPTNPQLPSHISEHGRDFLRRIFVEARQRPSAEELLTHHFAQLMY

[7] = target: T4, Acyl-CoA dehydrogenase family member 10 (Homo sapiens, UniProt Q6JQN1)
T4 sequence (Q6JQN1 whole entry): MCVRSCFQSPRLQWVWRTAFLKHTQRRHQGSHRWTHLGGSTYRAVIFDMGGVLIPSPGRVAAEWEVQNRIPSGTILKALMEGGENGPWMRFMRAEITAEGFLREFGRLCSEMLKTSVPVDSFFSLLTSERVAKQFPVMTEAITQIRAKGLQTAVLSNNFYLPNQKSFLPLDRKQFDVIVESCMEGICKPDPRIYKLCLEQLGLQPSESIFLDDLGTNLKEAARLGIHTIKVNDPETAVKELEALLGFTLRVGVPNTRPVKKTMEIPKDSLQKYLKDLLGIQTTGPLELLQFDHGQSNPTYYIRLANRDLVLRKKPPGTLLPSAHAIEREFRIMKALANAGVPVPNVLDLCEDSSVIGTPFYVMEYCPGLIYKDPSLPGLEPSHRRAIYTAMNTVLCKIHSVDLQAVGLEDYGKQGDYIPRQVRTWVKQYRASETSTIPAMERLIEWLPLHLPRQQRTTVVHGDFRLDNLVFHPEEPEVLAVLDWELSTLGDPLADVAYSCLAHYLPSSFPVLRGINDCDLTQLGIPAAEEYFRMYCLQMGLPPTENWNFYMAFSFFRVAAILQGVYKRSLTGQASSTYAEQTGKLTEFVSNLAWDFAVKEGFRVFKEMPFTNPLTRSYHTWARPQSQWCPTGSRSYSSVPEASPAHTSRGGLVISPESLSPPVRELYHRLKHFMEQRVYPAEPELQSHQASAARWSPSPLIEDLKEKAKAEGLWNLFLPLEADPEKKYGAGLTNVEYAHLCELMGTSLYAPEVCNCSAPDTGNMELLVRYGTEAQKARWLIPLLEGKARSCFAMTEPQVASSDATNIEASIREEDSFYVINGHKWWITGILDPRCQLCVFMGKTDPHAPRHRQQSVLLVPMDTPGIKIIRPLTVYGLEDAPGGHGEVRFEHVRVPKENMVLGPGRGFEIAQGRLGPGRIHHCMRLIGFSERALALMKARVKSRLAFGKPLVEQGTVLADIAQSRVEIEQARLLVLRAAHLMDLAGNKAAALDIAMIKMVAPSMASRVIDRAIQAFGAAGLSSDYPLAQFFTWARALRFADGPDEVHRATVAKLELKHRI

[8] = target: T5, Ribosyldihydronicotinamide dehydrogenase [quinone] (Homo sapiens, UniProt P16083)
T5 sequence (P16083 whole entry): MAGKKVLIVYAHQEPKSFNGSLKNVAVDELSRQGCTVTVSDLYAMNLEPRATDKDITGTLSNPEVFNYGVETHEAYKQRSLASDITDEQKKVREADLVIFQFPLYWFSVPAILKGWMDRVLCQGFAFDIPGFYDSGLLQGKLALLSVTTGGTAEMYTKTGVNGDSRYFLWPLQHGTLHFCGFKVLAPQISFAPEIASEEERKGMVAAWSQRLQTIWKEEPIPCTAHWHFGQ
Also: in the data inactive means no Kd found up to 30 µM.

Sequence of Interleukin-1 receptor-associated kinase 1 (P51617 whole entry): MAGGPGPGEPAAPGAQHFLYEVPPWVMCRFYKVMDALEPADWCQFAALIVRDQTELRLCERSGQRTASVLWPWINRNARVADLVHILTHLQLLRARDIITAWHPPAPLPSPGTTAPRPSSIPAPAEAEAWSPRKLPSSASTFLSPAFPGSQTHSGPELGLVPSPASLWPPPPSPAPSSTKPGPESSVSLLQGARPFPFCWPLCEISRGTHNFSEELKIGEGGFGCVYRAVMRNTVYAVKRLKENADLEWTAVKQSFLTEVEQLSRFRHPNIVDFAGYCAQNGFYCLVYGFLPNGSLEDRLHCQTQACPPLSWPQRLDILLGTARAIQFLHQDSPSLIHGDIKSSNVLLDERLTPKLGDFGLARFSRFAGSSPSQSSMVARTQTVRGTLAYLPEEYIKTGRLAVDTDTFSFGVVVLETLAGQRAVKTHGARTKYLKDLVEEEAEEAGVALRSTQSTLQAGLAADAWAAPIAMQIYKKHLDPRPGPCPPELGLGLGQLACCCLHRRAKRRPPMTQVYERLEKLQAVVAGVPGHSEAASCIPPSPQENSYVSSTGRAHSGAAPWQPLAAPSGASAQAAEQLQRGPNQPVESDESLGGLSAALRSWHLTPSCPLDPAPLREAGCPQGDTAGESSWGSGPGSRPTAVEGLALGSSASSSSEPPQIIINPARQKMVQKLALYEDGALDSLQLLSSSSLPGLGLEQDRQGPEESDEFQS
Sequence of RAC-alpha serine/threonine-protein kinase (P31749 whole entry): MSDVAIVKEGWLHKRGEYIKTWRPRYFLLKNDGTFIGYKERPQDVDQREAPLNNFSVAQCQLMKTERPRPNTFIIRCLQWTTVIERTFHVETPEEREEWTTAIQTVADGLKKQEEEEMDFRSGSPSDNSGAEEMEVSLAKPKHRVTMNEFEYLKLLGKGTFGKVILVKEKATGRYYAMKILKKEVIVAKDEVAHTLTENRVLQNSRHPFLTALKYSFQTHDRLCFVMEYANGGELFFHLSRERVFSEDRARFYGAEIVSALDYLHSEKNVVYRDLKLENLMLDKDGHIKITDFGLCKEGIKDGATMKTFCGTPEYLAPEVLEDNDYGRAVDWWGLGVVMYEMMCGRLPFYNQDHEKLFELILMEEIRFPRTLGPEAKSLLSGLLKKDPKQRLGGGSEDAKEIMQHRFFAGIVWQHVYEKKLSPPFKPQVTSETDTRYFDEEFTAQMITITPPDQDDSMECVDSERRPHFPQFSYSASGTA

| SMILES | Kd [1] | Kd [2] | Kd [3] | Kd [4] | Kd (Deoxycytidine kinase) | Kd [5] | Kd (Aurora kinase A) | Kd [6] | Kd [7] | Kd [8] |
| --- | --- | --- | --- | --- | --- | --- | --- | --- | --- | --- |
| COc1cccc2cc(-c3nc([C@H]4CC[C@H](C(=O)O)CC4)n4ncnc(N)c34)[nH]c12 [OSI-027] | > 30 µM (inactive) | > 30 µM (inactive) | > 30 µM (inactive) | > 30 µM (inactive) | > 30 µM (inactive) | > 30 µM (inactive) | > 30 µM (inactive) | > 30 µM (inactive) | > 30 µM (inactive) | 1.39 µM (active) |
| O=C(NC[C@H](O)CO)c1ccncc1Nc1ccc(I)cc1F [PIMASERTIB] | > 30 µM (inactive) | > 30 µM (inactive) | > 30 µM (inactive) | > 30 µM (inactive) | > 30 µM (inactive) | > 30 µM (inactive) | > 30 µM (inactive) | > 30 µM (inactive) | > 30 µM (inactive) | > 30 µM (inactive) |
| CN1CCN(c2nc(C3=C(c4c[nH]c5ccccc45)C(=O)NC3=O)c3ccccc3n2)CC1 [SOTRASTAURIN] | > 30 µM (inactive) | > 30 µM (inactive) | > 30 µM (inactive) | > 30 µM (inactive) | > 30 µM (inactive) | > 30 µM (inactive) | > 30 µM (inactive) | > 30 µM (inactive) | > 30 µM (inactive) | > 30 µM (inactive) |
| c1cc(OCCN2CCCCC2)cc(-c2n[nH]c3ccc(-c4nc[nH]n4)cc23)c1 [CC-401] | > 30 µM (inactive) | > 30 µM (inactive) | > 30 µM (inactive) | > 30 µM (inactive) | > 30 µM (inactive) | > 30 µM (inactive) | > 30 µM (inactive) | > 30 µM (inactive) | > 30 µM (inactive) | 1.41 µM (active) |
| O=c1[nH]c([C@@H]2CCCN2)nc2c1oc1ccc(Cl)cc12 | > 30 µM (inactive) | > 30 µM (inactive) | > 30 µM (inactive) | > 30 µM (inactive) | > 30 µM (inactive) | > 30 µM (inactive) | > 30 µM (inactive) | > 30 µM (inactive) | > 30 µM (inactive) | > 30 µM (inactive) |
| COc1ccc(-c2ccc3ncc4c(c3c2)n(-c2ccc(N3CCNCC3)c(C(F)(F)F)c2)c(=O)n4C)cn1 [BGT-226 FREE BASE] | > 30 µM (inactive) | > 30 µM (inactive) | > 30 µM (inactive) | > 30 µM (inactive) | > 30 µM (inactive) | > 30 µM (inactive) | > 30 µM (inactive) | > 30 µM (inactive) | > 30 µM (inactive) | > 30 µM (inactive) |
| O=S(=O)(c1cccc2c(O)nccc12)N1CCCNCC1 [HYDROXYFASUDIL] | > 30 µM (inactive) | > 30 µM (inactive) | > 30 µM (inactive) | > 30 µM (inactive) | > 30 µM (inactive) | > 30 µM (inactive) | > 30 µM (inactive) | > 30 µM (inactive) | 3.96 µM (active) | > 30 µM (inactive) |
